Source: patent publication US4178443A, “Derivatives of 7 [-substituted oxyimins acetamido] cephalosporins” (Hoffmann-La Roche Inc., priority 1977, dated 1979)
Converted amounts (≈) assume the structure as drawn.

Assays:
[1] = tested on: Escherichia coli; test: Activity in vitro: Minimum Inhibitory Concentration; assay type: cell-based
From the text: (§1) Activity in vitro: Minimum Inhibitory Concentration (μg/ml)

[2] = tested on: Haemophilus influenzae; test: as above; assay type: cell-based
From the text: as §1

[3] = tested on: Klebsiella pneumoniae; test: as above; assay type: cell-based
From the text: as §1

[4] = tested on: Proteus mirabilis; test: as above; assay type: cell-based
From the text: as §1

[5] = tested on: Proteus rettgeri; test: as above; assay type: cell-based; details: Providencia rettgeri
From the text: as §1

[6] = tested on: Proteus vulgaris; test: as above; assay type: cell-based
From the text: as §1

[7] = tested on: Staphylococcus aureus ATCC 6538; test: as above; assay type: cell-based; details: ATCC6538
From the text: as §1

[8] = tested on: Staphylococcus aureus Penicillin-resistant strain; test: as above; assay type: cell-based
From the text: as §1

[9] = tested on: Proteus mirabilis; test: Activity in vivo: survival of mice infected intraperitoneally with Proteus mirabilis; details: sc, 96 h; mice infected i.p. with Proteus mirabilis; compound s.c. one hour after infection; survival on 4th day; by interpolation; read-out: CD50 (dosage at which 50% of the mice survive)
Method: Groups of 10 mice are infected intraperitoneally with an aqueous suspension of Proteus mirabilis. One hour after the infection the test compound is administered subcutaneously. The number of surviving mice is determined on the 4th day. Various dosages of test compound are administered and the dosage at which 50% of the mice survice (CD50, mg/kg) is determined by interpolation.

[10] = Toxicity (mice, 24 hour values); details: mouse, in vivo
Method: TOXICITY (mice, 24 hour values)

[11] = Haemophilus influenzae strain 1
[12] = Haemophilus influenzae strain 2
[13] = Haemophilus influenzae strain 3
[14] = Haemophilus influenzae strain 4
[15] = Haemophilus influenzae strain 5
[16] = Haemophilus influenzae strain 6
[17] = Haemophilus influenzae strain 7

CCn1nc(SCC2=C(C(=O)O)N3C(=O)[C@@H](NC(=O)C(=NOC)c4ccco4)[C@H]3SC2)[nH]c(=O)c1=O [Compound F]
MIC ([1]; Escherichia coli strain 1): 1.2 µg/mL (≈ 2.24 µM)
MIC ([1]; Escherichia coli strain 2): 80 µg/mL (≈ 149 µM)
MIC [2, 11]: 2.5 µg/mL (≈ 4.66 µM)
MIC [2, 12]: 0.31 µg/mL (≈ 0.578 µM)
MIC [2, 13]: 1.2 µg/mL (≈ 2.24 µM)
MIC [2, 14]: 0.16 µg/mL (≈ 0.298 µM)
MIC [2, 15]: 0.08 µg/mL (≈ 0.149 µM)
MIC [2, 16]: 0.08 µg/mL (≈ 0.149 µM)
MIC [2, 17]: 0.16 µg/mL (≈ 0.298 µM)
MIC [3]: 40 µg/mL (≈ 74.6 µM)
MIC ([4]; Proteus mirabilis strain 1): 20 µg/mL (≈ 37.3 µM)
MIC ([4]; Proteus mirabilis strain 2): 40 µg/mL (≈ 74.6 µM)
MIC [5]: 10 µg/mL (≈ 18.6 µM)
MIC [6]: 20 µg/mL (≈ 37.3 µM)
MIC [7]: 5 µg/mL (≈ 9.32 µM)
MIC [8]: 5 µg/mL (≈ 9.32 µM)
ED50 [9]: 0.85 mg/kg
LD50 at 24 h ([10]; iv): 1000 to 2000 mg/kg

CON=C(C(=O)N[C@@H]1C(=O)N2C(C(=O)O)=C(CSc3nc(=O)c(=O)[nH]n3C)CS[C@H]12)c1ccco1 [Compound A, (7R)-7-[2-(2-furyl)-2-(methoxyimino)acetamido]-3-[[(1,2,5,6-tetrahydro-2-methyl-5,6-dioxo-as-triazin-3-yl)thio]methyl]-3-cephem-4-carboxylic acid]
MIC ([1]; Escherichia coli strain 1): 0.63 µg/mL (≈ 1.21 µM)
MIC ([1]; Escherichia coli strain 2): 40 µg/mL (≈ 76.6 µM)
MIC [2, 11]: 1.2 µg/mL (≈ 2.3 µM)
MIC [2, 12]: 0.16 µg/mL (≈ 0.306 µM)
MIC [2, 13]: 0.16 µg/mL (≈ 0.306 µM)
MIC [2, 14]: 0.16 µg/mL (≈ 0.306 µM)
MIC [2, 15]: 0.08 µg/mL (≈ 0.153 µM)
MIC [2, 16]: 0.16 µg/mL (≈ 0.306 µM)
MIC [2, 17]: 0.08 µg/mL (≈ 0.153 µM)
MIC [3]: 10 µg/mL (≈ 19.1 µM)
MIC ([4]; Proteus mirabilis strain 1): 2.5 µg/mL (≈ 4.78 µM)
MIC ([4]; Proteus mirabilis strain 2): 5 µg/mL (≈ 9.57 µM)
MIC [5]: 0.63 µg/mL (≈ 1.21 µM)
MIC [6]: 5 µg/mL (≈ 9.57 µM)
MIC [7]: 2.5 µg/mL (≈ 4.78 µM)
MIC [8]: 5 µg/mL (≈ 9.57 µM)
ED50 [9]: 0.09 mg/kg
LD50 at 24 h ([10]; iv, mice, 24 hour values): 500 to 1000 mg/kg
LD50 at 24 h ([10]; po, mice, 24 hour values): > 5000 mg/kg
LD50 at 24 h ([10]; sc, mice, 24 hour values): > 4000 mg/kg

CON=C(C(=O)N[C@@H]1C(=O)N2C(C(=O)O)=C(CSc3nc(=O)c(=O)[nH]n3C)CS[C@H]12)c1cccs1 [Compound E]
MIC ([1]; Escherichia coli strain 1): 2.5 µg/mL (≈ 4.64 µM)
MIC ([1]; Escherichia coli strain 2): 20 µg/mL (≈ 37.1 µM)
MIC [2, 11]: 2.5 µg/mL (≈ 4.64 µM)
MIC [2, 12]: 0.16 µg/mL (≈ 0.297 µM)
MIC [2, 13]: 0.16 µg/mL (≈ 0.297 µM)
MIC [2, 14]: 0.16 µg/mL (≈ 0.297 µM)
MIC [2, 15]: 0.08 µg/mL (≈ 0.149 µM)
MIC [2, 16]: 0.08 µg/mL (≈ 0.149 µM)
MIC [2, 17]: 0.08 µg/mL (≈ 0.149 µM)
MIC [3]: 40 µg/mL (≈ 74.3 µM)
MIC ([4]; Proteus mirabilis strain 1): 10 µg/mL (≈ 18.6 µM)
MIC ([4]; Proteus mirabilis strain 2): 20 µg/mL (≈ 37.1 µM)
MIC [5]: 2.5 µg/mL (≈ 4.64 µM)
MIC [6]: 10 µg/mL (≈ 18.6 µM)
MIC [7]: 2.5 µg/mL (≈ 4.64 µM)
MIC [8]: 2.5 µg/mL (≈ 4.64 µM)
ED50 [9]: 1.15 mg/kg
LD50 at 24 h ([10]; iv): 2000 to 4000 mg/kg

CON=C(C(=O)N[C@@H]1C(=O)N2C(C(=O)O)=C(CSc3n[nH]c(=O)c(=O)n3C)CS[C@H]12)c1ccco1 [Compound D, (7R)-7-[2-(2-furyl)-2-(methoxyimino)acetamido]-3-[[(1,4,5,6-tetrahydro-4-methyl-5,6-dioxo-as-triazin-3-yl)thio]methyl]-3-cephem-4-carboxylic acid]
MIC ([1]; Escherichia coli strain 1): 0.16 µg/mL (≈ 0.306 µM)
MIC ([1]; Escherichia coli strain 2): 5 µg/mL (≈ 9.57 µM)
MIC [2, 11]: 2.5 µg/mL (≈ 4.78 µM)
MIC [2, 12]: 0.31 µg/mL (≈ 0.593 µM)
MIC [2, 13]: 0.31 µg/mL (≈ 0.593 µM)
MIC [2, 14]: 0.31 µg/mL (≈ 0.593 µM)
MIC [2, 15]: 0.16 µg/mL (≈ 0.306 µM)
MIC [2, 16]: 0.16 µg/mL (≈ 0.306 µM)
MIC [2, 17]: 0.16 µg/mL (≈ 0.306 µM)
MIC [3]: 5 µg/mL (≈ 9.57 µM)
MIC ([4]; Proteus mirabilis strain 1): 10 µg/mL (≈ 19.1 µM)
MIC ([4]; Proteus mirabilis strain 2): 20 µg/mL (≈ 38.3 µM)
MIC [5]: 0.63 µg/mL (≈ 1.21 µM)
MIC [6]: 1.2 µg/mL (≈ 2.3 µM)
MIC [7]: 0.63 µg/mL (≈ 1.21 µM)
MIC [8]: 0.63 µg/mL (≈ 1.21 µM)
ED50 [9]: 0.7 mg/kg
LD50 at 24 h ([10]; iv, mice, 24 hour values): 500 to 1000 mg/kg
LD50 at 24 h ([10]; po, mice, 24 hour values): > 5000 mg/kg
LD50 at 24 h ([10]; sc, mice, 24 hour values): > 4000 mg/kg

Cn1c(SCC2=C(C(=O)O)N3C(=O)[C@@H](NC(=O)C(=NOCC(N)=O)c4ccco4)[C@H]3SC2)n[nH]c(=O)c1=O [Compound G, (7R)-7-[2-[(carbamoylmethoxy)imino]-2-(2-furyl)-acetamido]-3-[[(1,4,5,6-tetrahydro-4-methyl-5,6-dioxo-as-triazin-3-yl)thio]methyl]-3-cephem-4-carboxylic acid]
MIC ([1]; Escherichia coli strain 1): 0.31 µg/mL (≈ 0.548 µM)
MIC ([1]; Escherichia coli strain 2): 5 µg/mL (≈ 8.84 µM)
MIC [2, 11]: 5 µg/mL (≈ 8.84 µM)
MIC [2, 12]: 0.63 µg/mL (≈ 1.11 µM)
MIC [2, 13]: 0.31 µg/mL (≈ 0.548 µM)
MIC [2, 14]: 0.63 µg/mL (≈ 1.11 µM)
MIC [2, 15]: 0.31 µg/mL (≈ 0.548 µM)
MIC [2, 16]: 0.63 µg/mL (≈ 1.11 µM)
MIC [2, 17]: 0.63 µg/mL (≈ 1.11 µM)
MIC [3]: 2.5 µg/mL (≈ 4.42 µM)
MIC ([4]; Proteus mirabilis strain 1): 5 µg/mL (≈ 8.84 µM)
MIC ([4]; Proteus mirabilis strain 2): 10 µg/mL (≈ 17.7 µM)
MIC [5]: 0.63 µg/mL (≈ 1.11 µM)
MIC [6]: 1.2 µg/mL (≈ 2.12 µM)
MIC [7]: 1.2 µg/mL (≈ 2.12 µM)
MIC [8]: 1.2 µg/mL (≈ 2.12 µM)
ED50 [9]: 0.8 mg/kg
LD50 at 24 h ([10]; iv, mice, 24 hour values): > 4000 mg/kg

CON=C(C(=O)N[C@@H]1C(=O)N2C(C(=O)O)=C(CSc3nc(=O)c(=O)[nH]n3C)CS[C@H]12)c1ccccc1 [Compound C, (7R)-7-[2-(phenyl)-2-(methoxyimino)acetamido]-3-[[(1,2,5,6-tetrahydro-2-methyl-5,6-dioxo-as-triazin-3-yl)thio]methyl]-3-cephem-4-carboxylic acid]
MIC ([1]; Escherichia coli strain 1): 1.2 µg/mL (≈ 2.25 µM)
MIC ([1]; Escherichia coli strain 2): 10 µg/mL (≈ 18.8 µM)
MIC [2, 11]: 2.5 µg/mL (≈ 4.69 µM)
MIC [2, 12]: 0.16 µg/mL (≈ 0.3 µM)
MIC [2, 13]: 0.16 µg/mL (≈ 0.3 µM)
MIC [2, 14]: 0.16 µg/mL (≈ 0.3 µM)
MIC [2, 15]: 0.08 µg/mL (≈ 0.15 µM)
MIC [2, 16]: 0.08 µg/mL (≈ 0.15 µM)
MIC [2, 17]: 0.08 µg/mL (≈ 0.15 µM)
MIC [3]: 20 µg/mL (≈ 37.6 µM)
MIC ([4]; Proteus mirabilis strain 1): 10 µg/mL (≈ 18.8 µM)
MIC ([4]; Proteus mirabilis strain 2): 20 µg/mL (≈ 37.6 µM)
MIC [5]: 0.63 µg/mL (≈ 1.18 µM)
MIC [6]: 10 µg/mL (≈ 18.8 µM)
MIC [7]: 2.5 µg/mL (≈ 4.69 µM)
MIC [8]: 2.5 µg/mL (≈ 4.69 µM)
ED50 [9]: 0.6 mg/kg
LD50 at 24 h ([10]; iv, mice, 24 hour values): 1000 to 2000 mg/kg

CON=C(C(=O)N[C@@H]1C(=O)N2C(C(=O)O)=C(CSc3ccn(N)c(=O)n3)CS[C@H]12)c1ccco1 [Compound B, (7R)-7-[2-(2-furyl)-2-(methoxyimino)acetamido]-3-[[(1-amino-1,2-dihydro-2-oxo-4-pyrimidinyl)thio]-methyl]-3-cephem-4-carboxylic acid]
MIC ([1]; Escherichia coli strain 1): 2.5 µg/mL (≈ 4.94 µM)
MIC ([1]; Escherichia coli strain 2): 20 µg/mL (≈ 39.5 µM)
MIC [2, 11]: 2.5 µg/mL (≈ 4.94 µM)
MIC [2, 12]: 0.63 µg/mL (≈ 1.24 µM)
MIC [2, 13]: 0.63 µg/mL (≈ 1.24 µM)
MIC [2, 14]: 0.31 µg/mL (≈ 0.612 µM)
MIC [2, 15]: 0.31 µg/mL (≈ 0.612 µM)
MIC [2, 16]: 0.31 µg/mL (≈ 0.612 µM)
MIC [2, 17]: 0.31 µg/mL (≈ 0.612 µM)
MIC [3]: 20 µg/mL (≈ 39.5 µM)
MIC ([4]; Proteus mirabilis strain 1): 10 µg/mL (≈ 19.7 µM)
MIC ([4]; Proteus mirabilis strain 2): 40 µg/mL (≈ 79 µM)
MIC [5]: 2.5 µg/mL (≈ 4.94 µM)
MIC [6]: 40 µg/mL (≈ 79 µM)
MIC [7]: 0.16 µg/mL (≈ 0.316 µM)
MIC [8]: 1.2 µg/mL (≈ 2.37 µM)
ED50 [9]: 3 mg/kg
LD50 at 24 h ([10]; iv, mice, 24 hour values): 1000 to 2000 mg/kg
